# Data as given in ChEMBL document CHEMBL3045838, “Synthesis, antimicrobial and antioxidant activities of 2-[1-{3,5-diaryl-4,5-dihydro-1H-pyrazolenyl}]-4-(4-nitrophenyl)-[1,3]-thiazoles” (2013).
# Experiments:
# Type in all cases: functional
# Escherichia coli [1] = assay: microbe, parasite or virus in culture; conditions: ATCC 25922
# Description: Antibacterial activity against Escherichia coli ATCC 25922 assessed as growth inhibition by serial plate dilution method
# [2] = tested on: Trichophyton mentagrophytes; assay: Antifungal activity against Trichophyton mentagrophytes assessed as growth inhibition by serial plate dilution method
# Pseudomonas aeruginosa [3] = assay: Antibacterial activity against Pseudomonas aeruginosa ATCC 27853 assessed as growth inhibition at 1.56 to 25 ug/mL
# Staphylococcus aureus [4] = assay: Antibacterial activity against Staphylococcus aureus ATCC 25923 assessed as growth inhibition by serial plate dilution method
# Escherichia coli [5] = assay: Antibacterial activity against Escherichia coli ATCC 25922 assessed as growth inhibition at 1.56 to 25 ug/mL
# Klebsiella pneumoniae [6] = assay: Antibacterial activity against Klebsiella pneumoniae assessed as growth inhibition by serial plate dilution method
# Talaromyces marneffei [7] = assay: Antifungal activity against Talaromyces marneffei assessed as growth inhibition by serial plate dilution method
# [8] = tested on: Radical scavenging activity; assay: Antioxidant activity assessed as inhibition of DPPH radical generation at 4000 ug/mL after 15 min by UV-Vis spectrophotometric analysis relative to control; conditions: at 4000 µg/mL
# Aspergillus flavus [9] = assay: Antifungal activity against Aspergillus flavus NCIM 524 assessed as growth inhibition at 1.56 to 25 ug/mL
# [10] = tested on: Trichophyton mentagrophytes; assay: Antifungal activity against Trichophyton mentagrophytes assessed as growth inhibition at 1.56 to 25 ug/mL
# Talaromyces marneffei [11] = assay: Antifungal activity against Talaromyces marneffei assessed as growth inhibition at 1.56 to 25 ug/mL
# Staphylococcus aureus [12] = assay: Antibacterial activity against Staphylococcus aureus ATCC 25923 assessed as growth inhibition at 1.56 to 25 ug/mL
# Aspergillus flavus [13] = assay: Antifungal activity against Aspergillus flavus NCIM 524 assessed as growth inhibition by serial plate dilution method
# Aspergillus fumigatus [14] = assay: Antifungal activity against Aspergillus fumigatus NCIM 902 assessed as growth inhibition at 1.56 to 25 ug/mL
# Aspergillus fumigatus [15] = assay: Antifungal activity against Aspergillus fumigatus NCIM 902 assessed as growth inhibition by serial plate dilution method
# Pseudomonas aeruginosa [16] = assay: Antibacterial activity against Pseudomonas aeruginosa ATCC 27853 assessed as growth inhibition by serial plate dilution method
# Klebsiella pneumoniae [17] = assay: Antibacterial activity against Klebsiella pneumoniae assessed as growth inhibition at 1.56 to 25 ug/mL
MIC (Escherichia coli [1]) [µg/mL],MIC [2] [µg/mL],MIC (Staphylococcus aureus [4]) [µg/mL],MIC (Klebsiella pneumoniae [6]) [µg/mL],MIC (Talaromyces marneffei [7]) [µg/mL],MIC (Aspergillus flavus [13]) [µg/mL],MIC (Aspergillus fumigatus [15]) [µg/mL],MIC (Pseudomonas aeruginosa [16]) [µg/mL],SMILES,diameter of the inhibition zone (DIZ) (Pseudomonas aeruginosa [3]) [mm],diameter of the inhibition zone (DIZ) (Escherichia coli [5]) [mm],inhibition [8] [%],diameter of the inhibition zone (DIZ) (Aspergillus flavus [9]) [mm],diameter of the inhibition zone (DIZ) [10] [mm],diameter of the inhibition zone (DIZ) (Talaromyces marneffei [11]) [mm],diameter of the inhibition zone (DIZ) (Staphylococcus aureus [12]) [mm],diameter of the inhibition zone (DIZ) (Aspergillus fumigatus [14]) [mm],diameter of the inhibition zone (DIZ) (Klebsiella pneumoniae [17]) [mm]
6.25,6.25,6.25,6.25,6.25,6.25,6.25,6.25,CSc1ccc(C2CC(c3ccc(Cl)cc3Cl)=NN2c2nc(-c3ccc([N+](=O)[O-])cc3)cs2)cc1 (stereo not drawn),16,16,88,16,16,16,16,16,16
25,25,25,25,25,25,25,25,COc1ccc(C2=NN(c3nc(-c4ccc([N+](=O)[O-])cc4)cs3)C(c3ccc(SC)cc3)C2)cc1OC (stereo not drawn),< 10,< 10,86,< 10,< 10,< 10,< 10,< 10,< 10
6.25,6.25,6.25,6.25,6.25,6.25,6.25,6.25,COc1ccc(C2=NN(c3nc(-c4ccc([N+](=O)[O-])cc4)cs3)C(c3ccc(-c4ccc(Cl)cc4)o3)C2)cc1OC (stereo not drawn),16,16,35,16,16,16,16,16,16
6.25,6.25,6.25,6.25,6.25,6.25,6.25,6.25,CSc1ccc(C2CC(c3ccc(Cl)cc3)=NN2c2nc(-c3ccc([N+](=O)[O-])cc3)cs2)cc1 (stereo not drawn),16,16,38,16,16,16,16,16,16
